Data from US7947664B2, “Angiotensin II receptor antagonists” (Merck Sharp & Dohme Corp., priority 2008, dated 2011).
pEC50: −log10 of the molar value.

Tested on: isolated rabbit thoracic aorta preparations
Assay: Vessel relaxation in isolated rabbit thoracic aorta preparations
Conditions: Oryctolagus cuniculus; in vitro, rabbit aortic rings precontracted with noradrenaline (1 μM), functional endothelium
Description: The ability of the compounds to induce vasorelaxation was tested in vitro in isolated rabbit thoracic aorta preparations (Wanstall J. C. et al., Br. J. Pharmacol., 134:463-472, 2001). Male New Zealand rabbits were anaesthetized with thiopental-Na (50 mg/kg, iv), sacrificed by exsanguinations and then the thorax was opened and the aorta dissected. Aortic ring preparations (4 mm in length) were set up in physiological salt solution (PSS) at 37° C. in small organ chambers (5 ml). The composition of PSS was (mM): NaCl 130, NaHCO3 14.9, KH2PO4 1.2, MgSO4 1.2, HEPES 10, CaCl2, ascorbic acid […] and glucose 1.1 (95% O2/5% CO2; pH 7.4). Each ring was mounted under 2 g passive tension. Isometric tension was recorded with a Grass transducer (Grass FT03) attached to a BIOPAC MP150 System. Preparations were allowed to equilibrate for 1 h, and then contracted submaximally with noradrenaline (NA, 1 μM) and, when the contraction was stable, acetylcholine (ACh, 10 μM) was added. A relaxant response to ACh indicated the presence of a functional endothelium. […] When a stable precontraction was reached, a cumulative concentration-response curve to either of the vasorelaxant agents was obtained in the presence of a functional endothelium. Each arterial ring was exposed to only one combination of inhibitor and vasorelaxant. […]
Examples 32 and 48 were evaluated for vessel relaxation.

SMILES	pEC50
CCOc1nc2cccc(C(=O)OC(C)OC(=O)O[C@H](C)CCCCO/N=[N+](\[O-])N(C)C(C)(C)C)c2n1Cc1ccc(-c2ccccc2-c2nnn[nH]2)cc1 (stereo partly drawn) [Example 48, O^2-[(5R)-5-{[(1-{[(2-ethoxy-1-{[2′-(1H-tetrazol-5-yl)biphenyl-4-yl]methyl}-1H-benzimidazol-7-yl)carbonyl]oxy}ethoxy)carbonyl]oxy}hexyl] 1-(N-tert-butylmethylamino)diazen-1-ium-1,2-diolate]	< 4.00
CCOc1nc2cccc(C(=O)OC(C)OC(=O)OCCC(C)CCO/N=[N+](\[O-])N(C)C(C)(C)C)c2n1Cc1ccc(-c2ccccc2-c2nnn[nH]2)cc1 (centres unmarked) [Example 32, O^2-(5-{[(1-{[(2-ethoxy-1-{[2′-(1H-tetrazol-5-yl)biphenyl-4-yl]methyl}-1H-benzimidazol-7-yl)carbonyl]oxy}ethoxy)carbonyl]oxy}-3-methylpentyl) 1-(N-tert-butylmethylamino)diazen-1-ium-1,2-diolate]	4.34
